# Experimental data from patent US20240082221A1, “COMPOSITIONS AND METHODS FOR THE IDENTIFICATION OF COMPOUNDS THAT PROTECT AGAINST LIPOFUSCIN CYTOTOXICITY” (priority 2021, published 2024).
# “Also recorded” adds a separate entry of the source. Peptide text beside a SMILES is read from it. * marks the point of attachment. Cbz = O=C(OCc1ccccc1)*; CH2F = FC*
# Tests used:
# ARPE-19 cells = settings: for protection against lethal doses of A2E, viability: ARPE19 pretreated 1 hr, then A2E 25 μM for 24 hrs in presence of drug; for protection against lethal doses of A2E, viability / protection against light-independent LF (A2E/ATRD) cytotoxicity, RPE survival: AlamarBlue; for protection against light-independent LF (A2E/ATRD) cytotoxicity, RPE survival: ARPE-19, inhibitor pretreatment, A2E/ATRD 24 h, no light; for cell death in ARPE19 cells exposed to the substance: light-independent
# Protocol: Cell Viability Assay. […] 1× AlamarBlue solution prepared in OptiMEM was used to replace the media supernatant and the plate's fluorescence was determined at 555 nm excitation/585 nm emission with a SpectraMax M (Molecular Devices, CA, USA), after 1 h. […] The exact timing of appearance of far-red (DRAQ7=plasma membrane leakage) and blue (NUC405=caspase 3 activation) fluorescence signals was critical to differentiate apoptosis and necrosis from secondary events, such as membrane damage and generalized proteolytic activation during the late phase of apoptosis and necrosis, respectively.
# Real time monitoring of necrotic and apoptotic cell-death. Cell-death assay to study Lipofuscin's dark toxicity was performed. 90% confluent ARPE-19 or hfRPE were incubated overnight in serum free media supplemented with indicated LB concentration. Viability was assessed at 24 hrs by AlamarBlue®, or microscopy with NUC405/DRAQ7. Real time monitoring of necrotic (red) and apoptotic (blue) cell-death was performed by automated fluorescence microscopy. The exact timing of appearance of far-red (DRAQ7=plasma membrane leakage) and blue (NUC405=caspase 3 activation) fluorescence signals was critical to differentiate apoptosis and necrosis from secondary events, such as membrane damage and generalized proteolytic activation during the late phase of apoptosis and necrosis, respectively.
# Chemical inhibitors. Chemical inhibitors used in this study are described in FIG. 12.
# cathepsin D = assay type: cell-based
# Excerpt: (§1) Next, A2E buildups were imaged using a combination of DIC and fluorescence: A2E appeared as granules with well-defined edges, both within cells or after drying over a coverslip (FIGS. 14D and 14E). Next, the ability of the suspected A2E crystals to damage lysosomal membranes was investigated. A recently developed galectin-3 puncta assay for early detection of lysosomal membrane permeabilization (LMP) was used. Briefly, cytosolic galectin-3 rapidly binds to the glycocalyx in the luminal face of lysosomal membranes as they become leaky, which is easily detectable with anti-galectin high-affinity antibodies. L-Leucyl-L-Leucine methyl ester (LLO) a lysosomotropic peptide that causes LMP was used as positive control of puncta formation (FIG. 14E). […] LMP was confirmed by showing the […] of cathepsin D, as surrogate of lysosomal enzymes. […] Also, very remarkable was the observation that the same unique pattern of protection with arimoclomol and Nec-7 but not Nec-1 was observable for LLO (FIG. 14K), consistent with the idea that necroptosis by A2E is being caused by LMP.
# human MLKL = assay: Western blot of Ser358 phospho-MLKL, phosphorylation and polymerization of MLKL; assay type: cell-based; settings: for effect on LF-induced phosphorylation and polymerization of MLKL: non-reducing conditions, cells with A2E/ATRD; for induction of phosphorylation and polymerization of MLKL: absence of light
# Protocol: (§2) Immunoblotting. Total cell lysates were extracted using RIPA lysis buffer (50 mM TrisHCl, Ph 8.0, 150 mM NaCl, 1% NP40, 0.5% Sodium Deoxycholate, 0.1% SDS, protease-phosphatase inhibitor) after the incubation of the specific sample group in a 48 well plate. Sonication or syringing (20 times) was done followed by centrifugation at 12,000×g for 10 mins and the supernatant was collected and stored in −80° C. Proten concentration from homogenates were assessed by Pierce Rapid Gold BCA protein assay kit (ThermoFisher Scientific, cat.no. A53225). Then 30 μg of protein was analyzed by standard SDS-PAGE gel. Samples were mixed 4:1 (v:v) with Nupage loading buffer with or without 8% 0-mercaptoethanol and heated for 10 min at 72° C. SDS-PAGE was done using 4-12% Nupage gel and buffer (Life, NP0335BOX). Next, SDS-PAGE gel was transferred to nitrocellulose membrane (Whatman, PROTAN BA83) overnight at 20V. The following day, 5% milk in TBS was used for 2 h blocking the membrane and then primary antibody was added in TBST (TBS, 0.1% Tween-20) for overnight at 4° C. Next day membranes were washed and incubated for 2 hours at room temperature with HRP conjugated secondary antibody (cat #G21234, Invitrogen) at 1:10,000 dilution. After 3 more washed membranes were probed with enhanced chemiluminescence (ECL) reagent and detected using an X-ray films for chemiluminescence image (GE healthcare, RPN2106). Scanning/imaging and quantitation of the image was done using silverfast 8 application software and Fiji Image J. Antibodies for Western blotting were list in FIG. 10.
# For its phosphorylation, MLKL and its kinase need to be recruited into multiprotein complexes, known as necrosomes (FIG. 4O). Necrosomes are not well conserved among species and vary also with the nature of the stimuli that triggers their formation. […] Considering that phosphorylation of human MLKL at Ser358 (pMLKL), is a hallmark triggering event and marker of necroptosis, the Ser358-phosphorylation and polymerization status of MLKL in cells with LF was determined. […] A prerequisite for the assembly of these RIP kinases into necrosomes was their phosphorylation.
# ARPE19 cells = assay: ATR-induced light-independent cell death; assay type: cell-based, Human; settings: pre-treatment with 33 μM
# Excerpt: Overall, these indicate that necroptosis is a specific readout of ocular lipofuscin toxicity, easily distinguishable from the poisonous effects of ATR.
# lysosomal membranes = assay type: cell-based
# Excerpt: as §1
# [1] = system: UPR (PERK and ATF6 branches); assay: Western blot of ER-stress markers (p-eIF2a, ATF4, BiP, ATF6) without illumination; assay type: cell-based, Human
# Protocol: as §2
# The causal link between LF accumulation and ER-stress without light assistance was analyzed (FIG. 6A). […] The activation of the IRE1α branch was visualized by qPCR.
# CHOP = assay: Western blot of CHOP upregulation (UPR, downstream of PERK); assay type: cell-based, Human; settings: cells incubated with A2E
# Protocol: as §2
# IRE1α = assay: qPCR of spliced XBP1 (XBP1s) as readout of IRE1α activity in ARPE-19; assay type: cell-based, Human; settings: in the dark, qPCR
# Excerpt: RNA isolation and quantitative PCR. Total RNA was extracted from cultured cells or mouse eye RPE layer using the RNeasy Mini kit (QIAGEN). The total RNA was digested with deoxyribonuclease I to prevent amplification of genomic DNA. The total RNA then was reversed transcribed using High-Capacity cDNA Reverse Transcription Kit (ThermoFisher Scientific, cat.no. 4368814) and analyzed gene expression using SYBR Green Master Mix (ThermoFisher Scientific, cat.no. 4472908) in an Applied Biosystems StepOne real time PCR machine. GAPDH was used as a reference gene. […] After genes were amplified by real time PCR, some of the PCR products were separated by 2.5% agarose gel.
compound,measurement,setting,value
N=C(N)N/N=C/c1c(Cl)cccc1Cl [Guanabenz],"protection against lethal doses of A2E, viability",ARPE-19 cells,did not confer significant protection
[O-][n+]1cccc(/C(Cl)=N/OC[C@H](O)CN2CCCCC2)c1 [arimoclomol],"protection against light-independent LF (A2E/ATRD) cytotoxicity, RPE survival",ARPE-19 cells,protects against necroptosis by lipofuscin
same,effect on loss of cathepsin-D activity caused by A2E,cathepsin D,prevented
CC(C)(C)c1nc(-c2cccc(NS(=O)(=O)c3c(F)cccc3F)c2F)c(-c2ccnc(N)n2)s1 [dabrafenib],"protection against light-independent LF (A2E/ATRD) cytotoxicity, RPE survival",ARPE-19 cells,increased RPE survival in a dose dependent manner
c1cc(Nc2cc(C3CC3)[nH]n2)nc(Nc2ccc3nc[nH]c3c2)n1 [APY29],"protection against light-independent LF (A2E/ATRD) cytotoxicity, RPE survival",ARPE-19 cells,did not translate into survival
Cc1cc(O)c(C(=O)/C=C/c2ccc(O)c([N+](=O)[O-])c2)c(=O)o1 [Nec2],"protection against light-independent LF (A2E/ATRD) cytotoxicity, RPE survival",ARPE-19 cells,not affected
same,effect on LF-induced phosphorylation and polymerization of MLKL,human MLKL,not affected
CCC(=O)N1CCN(c2ccc(-n3c(=O)ccc4cnc5ccc(-c6cnc7ccccc7c6)cc5c43)cc2C(F)(F)F)CC1 [Torin-1],"protection against lethal doses of A2E, viability",ARPE-19 cells,did not confer significant protection
COc1cc(OC)c(/C=C/S(=O)(=O)Cc2ccc(OC)c(OP(=O)(O)O)c2)c(OC)c1 [Briciclib],"protection against lethal doses of A2E, viability",ARPE-19 cells,did not confer significant protection
CN1C(=O)NC(Cc2c[nH]c3c(Cl)cccc23)C1=O (stereo not shown) [Nec1s],"protection against light-independent LF (A2E/ATRD) cytotoxicity, RPE survival",ARPE-19 cells,not affected
same,effect on LF-induced phosphorylation and polymerization of MLKL,human MLKL,not affected
same,effect on cell death by ATR,ARPE19 cells,did not block cell death
"COC(=O)[C@H](CC(C)C)NC(=O)[C@@H](N)CC(C)C [LLO, L-Leucyl-L-Leucine methyl ester]",lysosomal membrane permeabilization (galectin-3 puncta),lysosomal membranes,induced Lysosome membrane permeabilization (LMP)
same,cathepsin-D activity,cathepsin D,caused reduction in cathepsin-D activity
COc1ccc(-n2c(SCC#N)nc3sc4c(c3c2=O)CCCC4)cc1 [Nec5],"protection against light-independent LF (A2E/ATRD) cytotoxicity, RPE survival",ARPE-19 cells,not affected
same,effect on LF-induced phosphorylation and polymerization of MLKL,human MLKL,not affected
tunicamycin,cleavage of ATF6,"[1]; 6 hrs treatment, 20 μM A2E",significant cleavage
COc1nccnc1NS(=O)(=O)c1ccc(NC(=O)/C=C/c2ccc([N+](=O)[O-])s2)cc1 [necrosulfonamide],"protection against light-independent LF (A2E/ATRD) cytotoxicity, RPE survival",ARPE-19 cells,increased RPE survival in a dose dependent manner
"CC1=C(/C=C/C(C)=C/C=C/C(C)=C/C=O)C(C)(C)CCC1 [ATR, all-trans-retinal]",cell death in ARPE19 cells exposed to the substance,ARPE-19 cells,Dose dependent cell death
same,induction of phosphorylation and polymerization of MLKL,human MLKL,no increase in phosphorylation/polymerization of MLKL
"CN1C(=O)C(Cc2c[nH]c3ccccc23)NC1=S (stereo not shown) [Nec1, Necrostatin-1]","protection against light-independent LF (A2E/ATRD) cytotoxicity, RPE survival",ARPE-19 cells,not affected
same,effect on LF-induced phosphorylation and polymerization of MLKL,human MLKL,did not block phosphorylation and polymerization of MLKL; also recorded: not affected
same,effect on cell death by ATR,ARPE19 cells,did not block cell death
same,effect on LF-induced upregulation of CHOP / UPR,CHOP,neither Nec1 nor GSK'872 effected the UPR
O=C(/C=C/c1ccccc1)NC(NC(=S)Nc1ccc(Cl)cc1)C(Cl)(Cl)Cl (stereo not shown) [SAL003],"protection against lethal doses of A2E, viability",ARPE-19 cells,protected against lipofuscin
COc1ccc(O)c(C(C)(C)C)c1 [BHA],"protection against light-independent LF (A2E/ATRD) cytotoxicity, RPE survival",ARPE-19 cells,did not rescue
O=S(=O)(N=Cc1c(O)ccc2ccccc12)c1cccs1 [STF-0831],"protection against light-independent LF (A2E/ATRD) cytotoxicity, RPE survival",ARPE-19 cells,did not translate into survival
methyl beta-cyclodextrins [MβCD],protection against A2E cytotoxicity by neutralization of detergent activity,"ARPE-19 cells; 10 μM methyl-βCD, 20 μM A2E",did not protect against A2E
CN1CCN(C(=O)c2ccc(-c3ccc4c(C=O)c(O)ccc4c3)s2)CC1 [MKC-3946],"protection against light-independent LF (A2E/ATRD) cytotoxicity, RPE survival",ARPE-19 cells,did not translate into survival
Cc1cc(Nc2cc(N)ncn2)c(=O)n2c1C(=O)NC21CCCCC1 [eFT508],"protection against lethal doses of A2E, viability",ARPE-19 cells,did not confer significant protection
CC(C)S(=O)(=O)c1ccc2nccc(Nc3ccc4scnc4c3)c2c1 [GSK'872],"protection against light-independent LF (A2E/ATRD) cytotoxicity, RPE survival",ARPE-19 cells,did not protect; also recorded: not affected
same,effect on LF-induced phosphorylation and polymerization of MLKL,human MLKL,did not; also recorded: not affected
same,effect on LF-induced upregulation of CHOP / UPR,CHOP,neither Nec1 nor GSK'872 effected the UPR
Cc1cc(=O)oc2c(C=O)c(O)ccc12 [4μ8C],"protection against light-independent LF (A2E/ATRD) cytotoxicity, RPE survival",ARPE-19 cells,did not translate into survival
COC(=O)C[C@H](NC(=O)[C@H](C)NC(=O)[C@@H](NC(=O)OCc1ccccc1)C(C)C)C(=O)CF [z-VAD(OMe)-FMK] (Cbz-Val-Ala-Asp(OMe)-CH2F),"protection against light-independent LF (A2E/ATRD) cytotoxicity, RPE survival",ARPE-19 cells,provided no protection
all-trans-retinal dimers [ATRD],cell death in ARPE19 cells exposed to the substance,ARPE-19 cells,Dose dependent cell death
same,induction of phosphorylation and polymerization of MLKL,human MLKL,dose-dependent phosphorylation and polymerization of MLKL
same,induction of XBP1s,IRE1α,dose and time-dependent inductions of XBP1s
same,induction of ATF4 and BiP,[1]; without light,highest induction of ATF4 and BiP
CC(C)c1nc(-c2ccc(NC(=O)Nc3cccc(C(F)(F)F)c3)c3ccccc23)c2c(N)nccn12 [KIRA3],"protection against light-independent LF (A2E/ATRD) cytotoxicity, RPE survival",ARPE-19 cells,sufficient to protect against necroptosis by LF
